Here are results for 2 molecules from PMC6028883, “A highly glucose-tolerant GH1 β-glucosidase with greater conversion rate of soybean isoflavones in monogastric animals” (Journal of Industrial Microbiology & Biotechnology, 2018).

One data set concerns the target AsBG1 (Alicyclobacillus sp. A4, UniProt A0A220YLM5). As to the kind of experiment: inhibition of cellobiose hydrolysis, ion exchange chromatography. The class given is biochemical. The note with it: read-out: % inhibition at 10 mM.
The next data set addresses T1, Bgl3A (Evansstolkia leycettana, UniProt A0A1B0VFN7).
T1 construct: laboratory stock enzyme
As to the kind of experiment: inhibition of daidzin hydrolysis, HPLC. The class given is biochemical. To be noted: 0.5 mM daidzin, glucose printed as 10 mM but 80 mM stock diluted fourfold; pH 6.5, 37 °C, 5 min.

Data set [1] has as its system O=[N+]([O-])c1ccc(O[C@@H]2O[C@H](CO)[C@@H](O)[C@H](O)[C@H]2O)cc1. As to the kind of experiment: initial rate, Lineweaver-Burk plot. It is filed as biochemical, Alicyclobacillus sp. A4. The note with it: pH 6.5, 55 °C, 5 min, 0.2-1.5 mM pNPG.

T1 sequence (A0A1B0VFN7 entry or part of it): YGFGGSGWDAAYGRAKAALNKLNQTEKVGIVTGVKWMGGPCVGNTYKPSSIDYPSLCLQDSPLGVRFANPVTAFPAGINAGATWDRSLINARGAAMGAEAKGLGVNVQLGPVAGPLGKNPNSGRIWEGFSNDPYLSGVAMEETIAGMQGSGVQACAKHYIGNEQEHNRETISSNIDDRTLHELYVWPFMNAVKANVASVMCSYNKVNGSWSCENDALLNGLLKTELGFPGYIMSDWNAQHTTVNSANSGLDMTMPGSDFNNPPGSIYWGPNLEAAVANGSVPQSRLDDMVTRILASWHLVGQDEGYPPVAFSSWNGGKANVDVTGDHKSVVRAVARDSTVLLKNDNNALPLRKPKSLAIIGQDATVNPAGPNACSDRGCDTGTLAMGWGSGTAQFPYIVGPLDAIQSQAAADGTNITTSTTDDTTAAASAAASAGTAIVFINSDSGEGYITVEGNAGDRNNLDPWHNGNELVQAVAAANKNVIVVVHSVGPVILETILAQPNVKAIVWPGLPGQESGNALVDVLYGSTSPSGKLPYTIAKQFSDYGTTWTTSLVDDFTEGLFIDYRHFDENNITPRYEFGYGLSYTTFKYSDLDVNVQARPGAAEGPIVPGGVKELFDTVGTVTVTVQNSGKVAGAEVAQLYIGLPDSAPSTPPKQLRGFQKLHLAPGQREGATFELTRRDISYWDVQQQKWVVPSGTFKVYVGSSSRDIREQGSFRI
Chain of AsBG1 (A0A220YLM5 1-454 limits assumed): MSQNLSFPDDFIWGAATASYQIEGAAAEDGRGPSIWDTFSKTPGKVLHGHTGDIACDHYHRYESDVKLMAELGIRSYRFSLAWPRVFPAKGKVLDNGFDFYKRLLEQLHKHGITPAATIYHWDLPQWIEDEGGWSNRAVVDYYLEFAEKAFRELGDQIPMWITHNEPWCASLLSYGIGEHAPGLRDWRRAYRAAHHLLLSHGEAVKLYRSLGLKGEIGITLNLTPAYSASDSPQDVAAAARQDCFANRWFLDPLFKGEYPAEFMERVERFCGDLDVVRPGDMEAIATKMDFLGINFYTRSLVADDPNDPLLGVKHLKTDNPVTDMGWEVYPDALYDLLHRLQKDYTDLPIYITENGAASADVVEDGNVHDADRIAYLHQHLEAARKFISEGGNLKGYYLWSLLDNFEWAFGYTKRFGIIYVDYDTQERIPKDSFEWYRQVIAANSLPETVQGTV

The term inhibition denotes the share of the control response that was lost under treatment. As for `OC[C@H]1OC(O)[C@H](O)[C@@H](O)[C@@H]1O` (stereo partly drawn) [glucose], the inhibition at 10000 µM on AsBG1 is around 60%. For the same molecule, on Bgl3A, the “inhibition of daidzin hydrolysis, HPLC” value was “the conversion efficiency of daidzin by Bgl3A was seriously impeded by glucose”.
For orientation: Km means the substrate concentration at which the rate is half of its maximum. As to AsBG1 (Alicyclobacillus sp. A4), the Km in data set [1] came out at 0.4 mM.
